These results are taken from patent publication US7244751B2, “Histone deacetylase inhibitors of novel benzamide derivatives with potent differentiation and anti-proliferation activity” (Shenzhen Chipscreen Biosciences Ltd., priority 2003, dated 2007).

What is called GI50 is the concentration that inhibits growth by half. For orientation: IC50 means the concentration needed to halve the response being measured.

Test [1] deals with HeLa, human cervical carcinoma. Put plainly: Growth inhibition by MTS method, HeLa. It is filed as cell-based. Particulars: 48 hours with compound, read-out: GI50 against HeLa. As for the experimental part: (§1) Growth inhibition tests were carried out by MTS method. Approximately 72 hours before the viability assay, cells were seeded into 96-well plates at 5-10×10^3 cells/well (according to the growth rate of individual cell lines used). 24 hours later, the tested compounds at different concentrations were added, and the cells were cultured for 48 hours, then added 20 μl/well of CellTiter 96 AQueous One Solution Reagent containing tetrazolium compound (Promega) into each well. MTS was subsequently added to the culture medium. After incubation of the plates for 2 hours at about 37° C., the absorbance at 490 nm was recorded by a 96-well plate reader. Cell viability was calculated by Atreatment/Acontrol×100% (A represents the absorbance recorded at 490 nm). […] All of the compounds were dissolved in DMSO and were added to the culture at a 1:1000 dilution to give a final DMSO concentration of ≦0.1%. All samples were assayed in duplicate, and each experiment was repeated at least three times.

The subject of test [2] is MDA-MB-231, human breast adenocarcinoma. Put plainly: Growth inhibition by MTS method, MDA-MB-231. Type of test: cell-based. Particulars: 48 hours with compound, read-out: GI50 against 231. As for the experimental part: as §1
For the next test, the system named is H292, human lung cancer. Description: Growth inhibition by MTS method, H292. It is filed as cell-based. Particulars: NCI-H292, 48 hours with compound, read-out: GI50 against H292. As for the experimental part: as §1
Test [3] relates to PANC-1, human pancreatic ductal carcinoma. Put plainly: Growth inhibition by MTS method, PANC-1. It is filed as cell-based. Particulars: 48 hours with compound, read-out: GI50 against PANC-1. As for the experimental part:
as §1

Test [4] has as its system SK-N-SH, human neuroblastoma. Description: Growth inhibition by MTS method, SK-N-SH. It is filed as cell-based. Particulars: 48 hours with compound, read-out: GI50 against SK-N-SH. As for the experimental part: as §1
On the technique in general: Formazan colour is commonly taken as a measure of viable cells.

Test [5] deals with MCF-7, human breast adenocarcinoma. Description: Growth inhibition by MTS method, MCF-7. It is filed as cell-based. Particulars: MCF7, 48 hours with compound, read-out: GI50 against MCF-7. As for the experimental part:
as §1

In test [6] the test system is SMMC-7721, human hepatoma. Description: Growth inhibition by MTS method, SMMC-7721. It is filed as cell-based. Particulars: SMMC-721, 48 hours with compound, read-out: GI50 against SMMC-721. As for the experimental part:
as §1

Test [7] relates to 293, human embryonic kidney. Description: Growth inhibition by MTS method, 293. It is filed as cell-based. Particulars: 48 hours with compound, read-out: GI50 against 293. As for the experimental part: as §1
Test [8] deals with Raji, human Burkitts Lymphoma. Description: Growth inhibition by MTS method, Raji. It is filed as cell-based. Particulars: 48 hours with compound, read-out: GI50 against Raji. As for the experimental part: as §1
Test [9] relates to DU-145, human prostate cancer. Put plainly: Growth inhibition by MTS method, DU-145. It is filed as cell-based. Particulars: 48 hours with compound, read-out: GI50 against DU-145. As for the experimental part:
as §1

Test [10] deals with HDAC (extract from HeLa cells containing HDAC activity). Put plainly: HDAC colorimetric activity assay kit (BIOMOL), HeLa cell extract. Type of test: biochemical, human. As for the experimental part: Briefly, the tested compounds at different concentrations were added to 96-well plates, then mixed with extract from HeLa cells containing HDAC activity provided by the manufacturer. HDAC reactions were initiated by adding substrate. 10 minutes later, the reactions were stopped by addition of Color De Lys Developer. Microplates were read in a plate reader at 405 nm. Inhibition of HDAC activity was calculated following the instructions.

Test [11] relates to Jurkat, human T cell leukemia. Put plainly: Growth inhibition by MTS method, Jurkat. It is filed as cell-based. Particulars: 48 hours with compound, read-out: GI50 against Jurkat. As for the experimental part: as §1
In test [12] the test system is HepG2, human hepatoblastoma. Description: Growth inhibition by MTS method, HepG2. It is filed as cell-based. Particulars: 48 hours with compound, read-out: GI50 against HepG2. As for the experimental part:
as §1

For another test, the system named is 28SC, human macrophage. Put plainly: Growth inhibition by MTS method, 28SC. It is filed as cell-based. Particulars: 48 hours with compound, read-out: GI50 against 28SC. As for the experimental part: as §1
Test [13] concerns SGC-7901, human gastric adenocarcinoma. Description: Growth inhibition by MTS method, SGC-7901. Type of test: cell-based. Particulars: 48 hours with compound, read-out: GI50 against SGC-7901. As for the experimental part:
as §1

For test [14], the system named is U2OS, human osteocarcinoma. Put plainly: Growth inhibition by MTS method, U2OS. Particulars: 48 hours with compound, read-out: GI50 against U2OS. It is filed as cell-based. As for the experimental part:
as §1

Test [15] has as its system LNCaP, human prostate cancer. Put plainly: Growth inhibition by MTS method, LNCaP. It is filed as cell-based. Particulars: 48 hours with compound, read-out: GI50 against LNCaP. As for the experimental part:
as §1

In test [16] the test system is HL-60, human myloid leukemia. Description: Growth inhibition by MTS method, HL-60. Type of test: cell-based. Particulars: 48 hours with compound, read-out: GI50 against HL-60. As for the experimental part:
as §1

The subject of test [17] is SK-OV-3, human ovary adenocarcinoma. Description: Growth inhibition by MTS method, SK-OV-3. It is filed as cell-based. Particulars: 48 hours with compound, read-out: GI50 against SK-OV-3. As for the experimental part: as §1

Turning to `Nc1ccccc1NC(=O)c1ccc(CNc2ccc(F)cc2)cc1` [CS02100019, N-(2-aminophenyl)-4-[N-(4-fluorophenyl)aminomethyl]benzamide], the GI50 in test [1] stood at 50 µM; in test [2], 7.9 µM; in the test with H292, human lung cancer, 50 µM; in [3], 5 µM; in test [4], 50 µM; in [5], 5 µM. Besides, the GI50 was 50 µM in test [6]; 25 µM in test [7]; 2 µM in test [8]; 50 µM in [9]; 1 µM in test [11]; 3.2 µM in [12]. Besides, the GI50 with 28SC, human macrophage was 2 µM; in test [13], 50 µM; in [14], 2.5 µM; in test [15], 10 µM; in test [16], 0.5 µM; in test [17], 50 µM. Further, the IC50 in [10] (HDAC activity, HeLa extract) was over 50 µM. Moreover, the “% of inhibition of HDAC activity” value in test [10] (concentration 1 μM) is 11.3%; in test [10] (concentration 5 μM), 24.9%; in test [10] (concentration 10 μM) it was 28.4%; in [10] (concentration 50 μM) it was 29.8%.
On to `Nc1cc(F)ccc1NC(=O)c1ccc(CNC(=O)/C=C/c2cccnc2)cc1` [CS02100055, N-(2-amino-4-fluorophenyl)-4-[N-(Pyridin-3-ylacryloyl)aminomethyl]benzamide], for which the GI50 in [1] was 40 µM; in test [2] it was 7.9 µM; in the test on H292, human lung cancer, 50 µM; in test [3], 6.3 µM; in test [4], 50 µM; in test [5], 5 µM. Besides, the GI50 in [6] came to 16 µM; in [7] it was 50 µM; in test [8], 4 µM; in test [9], 25 µM; in test [11] it was 1.5 µM; in test [12] it was 4 µM. In addition, the GI50 in the test with 28SC, human macrophage came out at 5.8 µM; in test [13], 50 µM; in [14] it was 2 µM; in test [15] it was 4 µM; in test [16], 0.4 µM; in test [17], 50 µM.
With `Nc1ccccc1NC(=O)c1ccc(CNC(=O)OCc2cccnc2)cc1` [MS-275, N-(2-aminophenyl)-4-[N-(pyridin-3-ylmethoxycarbonyl)aminomethyl]benzamide, reference compound], the GI50 came to 25 µM in test [1]; 5 µM in [2]; 16 µM in the test with H292, human lung cancer; 5 µM in [3]; 50 µM in test [4]; 6.3 µM in test [5]. Besides, the GI50 was 20 µM in test [6]; 16 µM in test [7]; 6.3 µM in test [8]; 13 µM in test [9]; 1.6 µM in test [11]; 3.2 µM in test [12]. Besides, the GI50 with 28SC, human macrophage came to 4 µM; in test [13] it was 50 µM; in [14], 1 µM; in test [15], 2.5 µM; in test [16], 0.32 µM; in [17], 50 µM.
